What was measured:
cathepsin L = target: T1, cathepsin L (Homo sapiens, UniProt P07711); experiment: kobs/I of activity-based probes, cathepsin L; type: biochemical; settings: Fig. 6A; pseudo-first order, probe at least 5-fold excess over cathepsin, 100 μM ACC substrate; pH 5.5, 37 °C; triplicate, SD below 20%
T1 construct: made in house
Experimental: (§1) All kinetic experiments were performed using fMax (Molecular Devices) and CLARIOStar (BMG LABTECH) spectrofluorimeters operating in kinetic mode using 96-well plates. ACC-labeled substrates were screened using 355 nm and 460 nm wavelengths (excitation and emission, respectively). […] The buffer was prepared at room temperature and the enzyme kinetic studies were performed at 37 °C.
(§2) For the kinetic studies, five recombinant human cathepsins (B, L, V, K and S) were expressed and purified and active site titrated using an E64 inhibitor. The kobs/I parameter was measured under pseudo-first order kinetic conditions, as described.[40] The cathepsin of interest was mixed with various concentrations of probe (at least 5-fold excess over cathepsin) and 100 μM ACC-fluorescence substrate. The experiments were repeated at least three times, and the results are presented as an average. The SDs were below 20%.

cathepsin V = target: T2, cathepsin V (Homo sapiens, UniProt O60911); experiment: kobs/I of activity-based probes, cathepsin V; type: biochemical; settings: Fig. 6A; pseudo-first order, probe at least 5-fold excess over cathepsin, 100 μM ACC substrate; pH 5.5, 37 °C; triplicate, SD below 20%
T2 construct: made in house
Experimental: as §1, §2

cathepsin B = target: T3, cathepsin B (Homo sapiens, UniProt P07858); experiment: kobs/I of activity-based probes, cathepsin B; type: biochemical; settings: Fig. 6A; pseudo-first order, probe at least 5-fold excess over cathepsin, 100 μM ACC substrate; pH 5.5, 37 °C; triplicate, SD below 20%
T3 construct: made in house
Experimental: as §1, §2

cathepsin K = target: T4, cathepsin K (Homo sapiens, UniProt P43235); experiment: kobs/I of activity-based probes, cathepsin K; type: biochemical; settings: Fig. 6A; pseudo-first order, probe at least 5-fold excess over cathepsin, 100 μM ACC substrate; pH 5.5, 37 °C; triplicate, SD below 20%
T4 construct: made in house
T4 sequence (P43235 115-329): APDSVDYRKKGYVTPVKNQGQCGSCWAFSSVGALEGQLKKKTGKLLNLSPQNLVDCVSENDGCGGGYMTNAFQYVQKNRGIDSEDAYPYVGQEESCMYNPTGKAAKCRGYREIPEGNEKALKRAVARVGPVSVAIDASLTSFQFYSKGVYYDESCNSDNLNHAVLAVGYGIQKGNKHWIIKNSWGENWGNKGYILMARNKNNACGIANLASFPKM
Experimental: as §1, §2

[1] = system: cathepsins L and B in MDA-MB-231 cells; experiment: Cathepsin labeling in MDA-MB-231 cells by SDS-PAGE and western blotting; type: cell-based, human; settings: MDA-MB-231 cells
Experimental: Low passage MDA-MB-231 cells were seeded on 12-well plates (200 000 cells per well per 1 mL of medium) and cultured in Dulbecco’s Modification of Eagle’s Medium (DMEM) supplemented with 10% fetal bovine serum, 2 mM of L-glutamine, 100 units per mL penicillin and 100 μg mL^–1 streptomycin. […] To control for non-specific binding, the cells were preincubated with E64d (25 μM) for 2 hours prior to probe addition. At various time points, the medium was aspirated and the cells were gently washed twice with 1 mL of Dulbecco’s Phosphate-Buffered Saline (DPBS) and then trypsinized, harvested and centrifuged for 10 min (500 × g). The supernatants were removed by aspiration and the pellets washed with 1 mL of DPBS and centrifuged (5 min, 500 × g). The supernatants were again removed and the pellets solubilized in 100 μL 1× SDS/DTT and then boiled for 5 min. Each sample was then cooled to room temperature and sonicated (Branson Sonifier 250, duty cycle: 50, output control: 5, cycles: 5) and then 30 μL was loaded on 4–12% Bis-Tris Plus gels and run for 30 min at 200 V with a SDS-PAGE Standards/Broad Range ladder. Proteins were transferred to a 0.2 μm nitrocellulose membrane for 1 hour at 10 V and then Ponceau staining was used to verify equal loading. Membranes were blocked with 2.5% BSA in Tris-buffered saline/0.1% v/v Tween 20 (TBS-T) for 1 hour at room temperature. Cathepsins L and B were detected by primary goat anti-hCathepsin L (R&D, AF952, 0.2 mg mL^–1, 1 : 2000) and goat anti-hCathepsin B (R&D, AF953, 0.2 mg mL^–1, 1 : 1000) antibodies, respectively, followed by incubation with a secondary antibody (IRDye® 800CW, LI-COR, donkey anti-goat, 1 : 10 000). The membranes were incubated with primary antibodies for 2 hours, and with (fluorescent) secondary antibodies for 30 min (both in TBS-T at room temperature). The fluorescence was read at 700 nm (Cyanine5; excitation 685 nm) and 800 nm (secondary antibody; excitation 785 nm) using an Odyssey fluorescence imaging system (LI-COR). The images were analyzed using Image Studio software.

[2] = system: cathepsins L and B in HEK293T cells; experiment: Cathepsin labeling by Cy5 probes in HEK293T cells, immunoblotting; type: cell-based, human; settings: 1 μM probe, 0–18 hours
Experimental: Figure S3 Cathepsins labeling by two Cy5-tagged probes in HEK293T cells. Panel A. Cells (100,000/well/mL) were incubated with MP-cL3 (1µM) probe for 0-18 hours. Next, cells were harvested and subjected for Western blotting. MP-cL3 probe is very selective toward cathepsin L even after 18 hours of incubation (only residual cathepsin B activity is detected).
MDA-MB-231, thus mostly heavy chain of cathepsin L is labeled. Panel B and Panel C. Cells (100,000/well/mL) were incubated with pan-specific MP-pc1 (1µ M) probe for 0-18 hours. Next, cells were harvested and subjected […]
(1 picture or pasted object on this page, not shown here)

[3] = system: cathepsins L, V, B, S and K; experiment: Labeling of recombinant cathepsins by Cy5 probes, SDS-PAGE; type: biochemical, human; settings: cathepsins 10 nM or 100 nM, probe/enzyme ratio 0.2, 1, 5 and 25, 30 min, Cy5 scan
Experimental: In experiment A, the probe concentrations were 2 nM, 10 nM, 50 nM and 250 nM, while in experiment B the probe concentrations were 20 nM, 100 nM, 500 nM and 2.5 μM. The reaction volume for all the samples was 200 μL. After 30 min, 100 μL of 3× SDS/DTT was added to the reaction mixtures, the samples were boiled for 5 min, and then 20 μL of the sample was run on 4–12% Bis-Tris Plus 15-well gels for 30 min at 200 V with 2 μL of PageRuler™ Prestained Protein Ladder. The gels were then directly scanned at 700 nm (red channel for Cy5 detection; excitation 685 nm) using an Odyssey fluorescence imaging system (LI-COR) and the images were analyzed using Image Studio software.

T1 sequence (P07711 114-333): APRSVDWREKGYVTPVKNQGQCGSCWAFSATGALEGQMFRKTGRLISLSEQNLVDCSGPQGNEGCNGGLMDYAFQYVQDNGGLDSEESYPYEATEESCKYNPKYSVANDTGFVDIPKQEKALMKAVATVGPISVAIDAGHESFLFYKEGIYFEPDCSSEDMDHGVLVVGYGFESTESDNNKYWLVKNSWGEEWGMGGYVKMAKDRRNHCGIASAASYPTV
T2 sequence (O60911 114-334): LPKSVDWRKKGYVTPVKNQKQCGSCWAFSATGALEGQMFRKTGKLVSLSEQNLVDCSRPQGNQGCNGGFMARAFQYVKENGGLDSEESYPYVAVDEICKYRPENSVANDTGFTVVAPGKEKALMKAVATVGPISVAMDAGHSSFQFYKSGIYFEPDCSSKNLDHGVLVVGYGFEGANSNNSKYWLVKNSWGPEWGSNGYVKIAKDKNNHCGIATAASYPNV

kobs/I Cath-L (cathepsin L): 322,000 M^-1s^-1
kobs/I Cath-V (cathepsin V): 380 M⁻¹ s⁻¹
kobs/I Cath-B (cathepsin B): 780 M⁻¹ s⁻¹
kobs/I Cath-K (cathepsin K): < 200 M⁻¹ s⁻¹
Substance: Cy5-6-ahx-His-DThr-Phe(F5)-Cys(Bzl)-AOMK [MP-cL3]
incubation time up to which only cathepsin L is labeled (no labeling of cathepsin B) ([1]; 1 μM probe): up to 8 hours
incubation time after which probe labeling is detectable in cells ([1]; 1 μM probe, 0–18 hours): 1 h
incubation time up to which only cathepsin L is labeled ([1]; 5 μM probe, 2-16 hours): up to two
cathepsins labeled in HEK293T cells [2]: bound only cathepsin L
labeling of recombinant cathepsins L, V, B, S and K [3]: very high degree of selectivity
